Reference: the Biogen ADME set (Fang et al. 2023)
Converted amounts (≈) assume the structure as drawn.

Conditions: for aqueous solubility: pH 6.8

Row | MDR1-MDCK efflux ratio | intrinsic clearance, human liver microsomes | intrinsic clearance, rat liver microsomes | aqueous solubility | fraction unbound, human plasma | fraction unbound, rat plasma | Compound
1 | 1.69 | ≤ 4.74 mL/min/kg | ≤ 10.7 mL/min/kg | 53.9 µg/mL (≈ 237 µM) | – | – | COc1cc(C(=O)O)c(N)c(OC)c1OC
2 | 0.896 | ≤ 4.74 mL/min/kg | 61.3 mL/min/kg | 45.1 µg/mL (≈ 163 µM) | – | – | O=C(CN1CCCc2ccc(F)cc21)N1CCNC1=O
3 | 12.7 | ≤ 4.74 mL/min/kg | 27.9 mL/min/kg | – | – | – | Cc1nc(NCc2cn(C)nc2-c2cccs2)n(C)n1
4 | 1.38 | 124 mL/min/kg | 3140 mL/min/kg | – | – | – | Cc1ccc(OC[C@@H](O)[C@H](C)NC(C)C)c2c1CCC2
5 | 0.443 | ≤ 4.74 mL/min/kg | 527 mL/min/kg | 30.1 µg/mL (≈ 132 µM) | – | – | Cc1cccc(Oc2cc(CN)ccn2)c1C
6 | 1.01 | 41.9 mL/min/kg | 300 mL/min/kg | 44.7 µg/mL (≈ 140 µM) | – | – | O=C(CCc1ccc2c(c1)OCO2)Nc1cccc2cnccc12
7 | – | 71.6 mL/min/kg | 435 mL/min/kg | – | – | – | CCN1CCc2c(sc(NC(=O)CS(=O)(=O)c3ccccc3)c2-c2nc3ccccc3s2)C1
8 | – | 8.4 mL/min/kg | 324 mL/min/kg | – | – | – | CC(C)(CNc1cnn(CCO)c1)c1ccccc1
9 | 0.569 | 28.3 mL/min/kg | 652 mL/min/kg | 22.5 µg/mL (≈ 74.5 µM) | – | – | Cc1nn(C)c2ncnc(N(C)Cc3cccc(Cl)c3)c12
10 | 28.5 | 14.7 mL/min/kg | 379 mL/min/kg | 55.7 µg/mL (≈ 167 µM) | – | – | Cc1nc2cc(-c3nccn3C)nn2c(NCc2cccnc2)c1C
11 | 46.7 | ≤ 4.74 mL/min/kg | 244 mL/min/kg | – | – | – | CNCc1cc(N(C)C)nc(C2CCCN2C(=O)COc2ccc(F)cc2)n1 (stereo unspecified)
12 | 0.884 | 34 mL/min/kg | 372 mL/min/kg | 16.2 µg/mL (≈ 72.9 µM) | – | – | C1CCC(OCc2noc(C3CC3)n2)CC1
13 | – | ≤ 4.74 mL/min/kg | 172 mL/min/kg | – | – | – | Cc1ncsc1CCN1C(=O)NC2(CCCC2)C1=O
14 | 29.9 | 19.7 mL/min/kg | 89.9 mL/min/kg | – | – | – | Cc1cc(Nc2ccc(F)cn2)cc(C2CCN(C(=O)Cn3nc(C)ccc3=O)C2)n1 (stereo unspecified)
15 | 2.23 | 16.7 mL/min/kg | 438 mL/min/kg | 43.5 µg/mL (≈ 109 µM) | – | – | O=C(Nc1ccn(Cc2ccc(O)cc2C(F)(F)F)n1)c1c(F)cccc1F
16 | 4.31 | ≤ 4.74 mL/min/kg | ≤ 10.7 mL/min/kg | – | – | – | COCC(C)(C)C(=O)N1CCCC2(CCNCC2)CC1
17 | 1.41 | ≤ 4.74 mL/min/kg | 106 mL/min/kg | 39.9 µg/mL (≈ 126 µM) | – | – | CCOc1ccc(C(=O)Nc2cnn(C3CCOCC3)c2)cn1
18 | – | 46 mL/min/kg | 506 mL/min/kg | 55 µg/mL (≈ 167 µM) | – | – | CC(=O)N1CCCC(C(=O)N2CCc3c(cccc3C(C)C)C2)C1 (stereo unspecified)
19 | 1.33 | 175 mL/min/kg | 611 mL/min/kg | 4.75 µg/mL (≈ 15.1 µM) | – | – | CSc1ccc(NC(=O)Cn2nc(C3CC3)ccc2=O)cc1
20 | – | 130 mL/min/kg | 5120 mL/min/kg | – | – | – | O=C(C1CCCCC1)N1CCC[C@H]1Cn1nnc(-c2cccs2)n1
21 | – | 16 mL/min/kg | 91.4 mL/min/kg | 3.9 µg/mL (≈ 18.4 µM) | – | – | O=C(Nc1ccccc1)Nc1ccccc1
22 | – | 209 mL/min/kg | 196 mL/min/kg | – | – | – | CCc1noc(-c2ccc(C)c(N)c2)n1
23 | 0.564 | 5.12 mL/min/kg | 50.8 mL/min/kg | – | – | – | Cc1c(C(=O)Nc2ccc(CO)cc2)nnn1Cc1ccc(Cl)c(Cl)c1
24 | 0.543 | ≤ 4.74 mL/min/kg | 71.6 mL/min/kg | 60.8 µg/mL (≈ 241 µM) | – | – | NC(=O)CN1CCC(Oc2cccc(F)c2)CC1
25 | 0.731 | 341 mL/min/kg | 1420 mL/min/kg | 28 µg/mL (≈ 79 µM) | – | – | COCC1(c2nc(-c3ccncc3)nn2Cc2cccc(Cl)c2)CC1
26 | – | 7.6 mL/min/kg | 17 mL/min/kg | – | – | – | CCCCCCCCc1ccc(CCC(N)(CO)CO)cc1
27 | – | 124 mL/min/kg | 32.9 mL/min/kg | 14.7 µg/mL (≈ 36.7 µM) | – | – | COc1ccc(-c2ccc(CNc3ccc(CN4CCC(C)CC4)cc3)cc2)cc1
28 | 0.802 | 6.99 mL/min/kg | ≤ 10.7 mL/min/kg | 40.8 µg/mL (≈ 154 µM) | – | – | O=C(O)c1nc(-c2ccccc2)oc1-c1ccccc1

Row | MDR1-MDCK efflux ratio | intrinsic clearance, human liver microsomes | intrinsic clearance, rat liver microsomes | aqueous solubility | fraction unbound, human plasma | fraction unbound, rat plasma | Compound
29 | 1.2 | ≤ 4.74 mL/min/kg | ≤ 10.7 mL/min/kg | 34.8 µg/mL (≈ 147 µM) | – | – | CO[C@H]1COCCN(C(=O)c2cccnc2)C1
30 | – | 58.2 mL/min/kg | 145 mL/min/kg | – | – | – | COc1c(C)cnc(Cn2cc(C#CCC(C)(C)O)c3c(Cl)nc(N)nc32)c1C
31 | 38.8 | 7.28 mL/min/kg | 153 mL/min/kg | – | – | – | CC(=O)N1CCN([C@H]2CCN(C(=O)c3cc4cc(C)ccc4o3)CC[C@@H]2O)CC1
32 | 28.7 | 38.2 mL/min/kg | 218 mL/min/kg | – | 0.0128 | 0.00864 | CCOc1cc(CC(=O)N[C@@H](CC(C)C)c2ccccc2N2CCCCC2)ccc1C(=O)O
33 | – | – | – | 37.7 µg/mL (≈ 138 µM) | – | – | Cc1noc2ncc(-c3nnc(CC(C)(C)C)o3)cc12
34 | 0.636 | 124 mL/min/kg | 4310 mL/min/kg | 74.7 µg/mL (≈ 254 µM) | – | – | Cc1cccnc1NC(=O)Cc1coc2c(C)c(C)ccc12
35 | 1.32 | 280 mL/min/kg | 982 mL/min/kg | – | 0.0676 | 0.034 | CNC(=O)C1(Cc2ccc(-c3cccnc3)cc2)CCN(Cc2cccc(F)c2)C1 (stereo unspecified)
36 | 1.24 | 6.73 mL/min/kg | 2490 mL/min/kg | 43.4 µg/mL (≈ 168 µM) | – | – | CCN1CCC(Nc2nc(C)cc(C)c2C#N)CC1
37 | 0.4 | ≤ 4.74 mL/min/kg | ≤ 10.7 mL/min/kg | – | – | – | O=C(O)c1csc(Cc2ccc(Cl)cc2)n1
38 | 0.762 | 8.11 mL/min/kg | 80.5 mL/min/kg | 54.1 µg/mL (≈ 176 µM) | – | – | CC(C)NC(=O)c1cc(-c2ccccc2)n(-c2ccccn2)n1
39 | – | 75.9 mL/min/kg | 604 mL/min/kg | – | – | – | O=C(c1ccc(NS(=O)(=O)c2cccc3cccnc23)cc1)N1CCN(CC2CC2)CC1
40 | 0.314 | 20.7 mL/min/kg | 76.3 mL/min/kg | 4.11 µg/mL (≈ 12.8 µM) | – | – | O=C(Nc1ccc(F)cc1)c1cc(C2CC2)nn1-c1ccccc1
41 | 40.1 | ≤ 4.74 mL/min/kg | 100 mL/min/kg | 40.5 µg/mL (≈ 112 µM) | – | – | Cc1ccc(-c2ccccc2-c2nc3c(cnn3C3CCN(C)CC3)[nH]2)o1
42 | 0.635 | ≤ 4.74 mL/min/kg | 44.2 mL/min/kg | 34.9 µg/mL (≈ 134 µM) | – | – | CCc1ncnc(N(C)Cc2ccc(N)nc2)c1F
43 | – | 594 mL/min/kg | 1370 mL/min/kg | – | – | – | COc1ccc(Cl)cc1N(CC(=O)Nc1ccccc1C(=O)NCc1ccccc1)S(C)(=O)=O
44 | 1.01 | 39.6 mL/min/kg | 1140 mL/min/kg | 20.5 µg/mL (≈ 76.4 µM) | – | – | CN(Cc1n[nH]c2c1CCCC2)c1nccnc1C#N
45 | – | 8.22 mL/min/kg | 147 mL/min/kg | – | – | – | O=C(Nc1nnc[nH]1)c1ccc(C2SCCCS2)cc1
46 | 0.723 | 36.7 mL/min/kg | 957 mL/min/kg | – | – | – | Cc1cc(C(=O)N2CCC(C(=O)c3ccnn3C)CC2)sc1C
47 | – | 29.3 mL/min/kg | 239 mL/min/kg | – | – | – | NCCCc1nc(-c2ccncc2)cs1
48 | – | 12 mL/min/kg | 215 mL/min/kg | – | – | – | CCOc1ccc2nc3c(cc2c1)CN(CCOC)C(=O)O3
49 | 12.8 | – | – | 0.19 µg/mL (≈ 0.436 µM) | – | – | Cc1cn2c3c(=O)n(Cc4ccccc4Cl)c(=O)n(C)c3nc2n1-c1ccccc1O
50 | 0.999 | 43.4 mL/min/kg | 169 mL/min/kg | 22.9 µg/mL (≈ 51.8 µM) | – | – | COc1ccc2c(c1)C=C(CN1CCC(c3cc(-c4ccc(N)nc4)cc(C)n3)CC1)CO2
51 | – | 9.68 mL/min/kg | 527 mL/min/kg | – | – | – | Cc1nc(C2CCN(c3ccc(F)cc3C#N)CC2)no1
52 | 0.755 | 158 mL/min/kg | 3190 mL/min/kg | 37 µg/mL (≈ 106 µM) | – | – | COc1ccccc1-c1nnc([C@H]2CCN(Cc3ccccc3C)C2)o1
53 | – | ≤ 4.74 mL/min/kg | 24.7 mL/min/kg | 67.3 µg/mL (≈ 174 µM) | – | – | Cc1nc2cc(C(=O)N3CCc4nc5ccccc5c(=O)n4CC3)ccc2n1C
54 | 0.58 | 21.4 mL/min/kg | 774 mL/min/kg | 39 µg/mL (≈ 119 µM) | – | – | O=C(c1cnc(-c2ccccc2)s1)N1CCOC2(CCCC2)C1
55 | 0.645 | 33.7 mL/min/kg | 442 mL/min/kg | 5.12 µg/mL (≈ 15.4 µM) | – | – | COc1ccc2ccccc2c1CNC(=O)c1cnc(C2CC2)nc1

Row | Compound | MDR1-MDCK efflux ratio | intrinsic clearance, human liver microsomes | intrinsic clearance, rat liver microsomes | aqueous solubility | fraction unbound, human plasma | fraction unbound, rat plasma
56 | Cc1nn(C)c2sc(C(=O)N3CCC(C(=O)O)(c4ccccc4)CC3)cc12 | 8.54 | ≤ 4.74 mL/min/kg | ≤ 10.7 mL/min/kg | 73.7 µg/mL (≈ 192 µM) | – | –
57 | Cc1cc(C)nc(NCc2cnc(C)c(C)c2)n1 | 0.622 | 12.5 mL/min/kg | 162 mL/min/kg | 13.3 µg/mL (≈ 54.9 µM) | – | –
